Results as given in patent US20100028889A1, “COMPANION DIAGNOSTIC ASSAYS FOR CANCER THERAPY” (ABBOTT LABORATORIES, priority 2006, published 2010).
Read-outs that look alike come from different tables or passages of the source.

What was measured:
Assay in all cases: sensitivity of SCLC cell line, procedure of Oltersdorf
Type in all cases: cell-based
[1] = system: NCI-H889; settings: Homo sapiens, read-out: sensitivity class by EC50
Method: (§1) The following SCLC cell lines were obtained from ATCC (Manassis, Va.): NCI-H889, NCI-H1963, NCI-H1417, NCI-H146, NCI-H187, DMS53, NCI-H510, NCI-H209, NCI-H211, NCI-H345, NCI-H524, NCI-H69, DMS79, SHP77, NCI-H1688, NCI-H446, NCI-H740, NCI-H1048, NCI-H82, NCI-H196, SW1271, H69AR, NCI-H526, NCI-H865, NCI-H748, NCI-H711, and DMS114. All cells were cultured in the ATCC recommended media at 37° C. in a humidified atmosphere containing 5% CO2. The following leukemia and lymphoma cell lines were obtained from ATCC (Manassis, Va.): MV-4-11, RS4;11, Loucy, KG-1A, DOHH2, Rs11380, CCRF-HSB-2, CCRF-CEM, CEM/C1, Reh, SUP-B15, MOLT-4, SUDHL4, HL-60, RPMI 8226, A3, Daudi, WSU-NHL, Pfeiffer, Jurkat I 9.2, Jurkat, MEG-01, U-937, K-562, and Raji.
(§2) The 27 SCLC cell lines were tested for sensitivity to ABT-737 using the procedure described in Oltersdorf, T., “An inhibitor of Bcl-2 family proteins induces regression of solid tumours”, Nature, 435: 677-681, 2005, with a cell line classified as sensitive if its EC50<5 μM and as resistant if its EC50>5 µM. The sensitive cell line group consisted of NCI-H889, NCI-H1963, NCI-H1417, NCI-H146, DMS 53, NCI-H187, NCI-H510, NCI-H209, NCI-H345, NCI-H526, NCI-H211, NCI-H865, NCI-H524, NCI-H748, DMS 79, NCI-H69, NCI-H711, SHP 77, NCI-H1688, and the resistant cell line group was comprised of NCI-H446, NCI-H740, NCI-H1048, NCI-H82, NCI-H196, SW1271, DMS 114, and NCI-H69AR.
(§3) The 22 SCLC cell lines were tested for sensitivity to ABT-263 using the procedure described in Oltersdorf, T., “An inhibitor of Bcl-2 family proteins induces regression of solid tumours”, Nature, 435: 677-681, 2005, with a cell line classified as sensitive if its EC50<5 µM and as resistant if its EC50>5 μM. The sensitive cell line group consisted of NCI-H146, NCI-H889, NCI-H1963, NCI-H187, NCI-H1417, NCI-H211, NCI-H69, NCI-H209, NCI-H510, DMS 53, DMS 79, NCI-H345, NCI-H1048, SHP 77, NCI-H446 and the resistant cell line group was comprised of NCI-H1688, NCI-H740, NCI-H82, NCI-H69AR, SW1271, DMS 114 and NCI-H 196.

[2] = system: NCI-H187; settings: Homo sapiens, read-out: sensitivity class by EC50
Method: as §1, §2, §3

[3] = system: NCI-H211; settings: Homo sapiens, read-out: sensitivity class by EC50
Method: as §1, §2, §3

[4] = system: NCI-H146; settings: Homo sapiens, read-out: sensitivity class by EC50
Method: as §1, §2, §3

[5] = system: NCI-H1417; settings: Homo sapiens, read-out: sensitivity class by EC50
Method: as §1, §2, §3

[6] = system: NCI-H69AR; settings: Homo sapiens, read-out: sensitivity class by EC50
Method: as §1, §2, §3

[7] = system: SW1271; settings: Homo sapiens, read-out: sensitivity class by EC50
Method: as §1, §2, §3

[8] = system: DMS 79; settings: Homo sapiens, read-out: sensitivity class by EC50
Method: as §1, §2, §3

[9] = system: NCI-H345; settings: Homo sapiens, read-out: sensitivity class by EC50
Method: as §1, §2, §3

[10] = system: DMS 53; settings: Homo sapiens, read-out: sensitivity class by EC50
Method: as §1, §2, §3

[11] = system: NCI-H1963; settings: Homo sapiens, read-out: sensitivity class by EC50
Method: as §1, §2, §3

[12] = system: NCI-H1048; settings: Homo sapiens, read-out: sensitivity class by EC50
Method: as §1, §2, §3

[13] = system: NCI-H196; settings: Homo sapiens
Method: as §1, §2, §3

[14] = system: NCI-H69; settings: Homo sapiens, read-out: sensitivity class by EC50
Method: as §1, §2, §3

[15] = system: DMS 114; settings: Homo sapiens, read-out: sensitivity class by EC50
Method: as §1, §2, §3

[16] = system: NCI-H209; settings: Homo sapiens, read-out: sensitivity class by EC50
Method: as §1, §2, §3

[17] = system: NCI-H82; settings: Homo sapiens, read-out: sensitivity class by EC50
Method: as §1, §2, §3

[18] = system: SHP 77; settings: Homo sapiens, SHP77, read-out: sensitivity class by EC50
Method: as §1, §2, §3

[19] = system: NCI-H740; settings: Homo sapiens, read-out: sensitivity class by EC50
Method: as §1, §2, §3

[20] = system: NCI-H446; settings: Homo sapiens, read-out: sensitivity class by EC50
Method: as §1, §2, §3

[21] = system: NCI-H510; settings: Homo sapiens, read-out: sensitivity class by EC50
Method: as §1, §2, §3

[22] = system: NCI-H1688; settings: Homo sapiens, read-out: sensitivity class by EC50
Method: as §1, §2, §3

EC50 [1]	EC50 [2]	EC50 [3]	EC50 [4]	EC50 [5]	EC50 [6]	EC50 [7]	EC50 [8]	EC50 [9]	EC50 [10]	EC50 [11]	EC50 [12]	EC50 [14]	EC50 [15]	EC50 [16]	EC50 [17]	EC50 [18]	EC50 [19]	EC50 [20]	EC50 [21]	SMILES	other results
< 5 µM	< 5 µM	< 5 µM	< 5 µM	< 5 µM	> 5 µM	> 5 µM	< 5 µM	< 5 µM	< 5 µM	< 5 µM	< 5 µM	< 5 µM	> 5 µM	< 5 µM	> 5 µM	< 5 µM	> 5 µM	< 5 µM	< 5 µM	CC1(C)CCC(c2ccc(Cl)cc2)=C(CN2CCN(c3ccc(C(=O)NS(=O)(=O)c4ccc(N[C@H](CCN5CCOCC5)CSc5ccccc5)c(S(=O)(=O)C(F)(F)F)c4)cc3)CC2)C1 [ABT-263, N-(4-(4-((2-(4-chlorophenyl)-5,5-dimethyl-1-cyclohex-1-en-1-yl)methyl)piperazin-1-yl)benzoyl)-4-(((1R)-3-(morpholin-4-yl)-1-((phenylsulfanyl)methyl)propyl)amino)-3-((trifluoromethyl)sulfonyl)benzenesulfonamide]	EC50 ([13]; NCI-H 196, read-out: sensitivity class by EC50): > 5 µM; EC50 [22]: > 5 µM
< 5 µM	< 5 µM	< 5 µM	< 5 µM	< 5 µM	> 5 µM	> 5 µM	< 5 µM	< 5 µM	< 5 µM	< 5 µM	> 5 µM	< 5 µM	> 5 µM	< 5 µM	> 5 µM	< 5 µM	> 5 µM	> 5 µM	< 5 µM	CN(C)CC[C@H](CSc1ccccc1)Nc1ccc(S(=O)(=O)NC(=O)c2ccc(N3CCN(Cc4ccccc4-c4ccc(Cl)cc4)CC3)cc2)cc1[N+](=O)[O-] [ABT-737, N-(4-(4-((4′-chloro(1,1′-biphenyl)-2-yl)methyl)piperazin-1-yl)benzoyl)-4-(((1R)-3-(dimethylamino)-1-((phenylsulfanyl)methyl)propyl)amino)-3-nitrobenzenesulfonamide]	EC50 ([13]; read-out: sensitivity class by EC50): > 5 µM; EC50 [22]: < 5 µM
